One block for each molecule: values may come before it.
Tests used:
[1] = target: T1, GIPR (Homo sapiens, UniProt P48546); test: Schild analysis of FFA release in hMADS with GIPR antagonist; format: cell-based
T1 sequence (P48546 22-466): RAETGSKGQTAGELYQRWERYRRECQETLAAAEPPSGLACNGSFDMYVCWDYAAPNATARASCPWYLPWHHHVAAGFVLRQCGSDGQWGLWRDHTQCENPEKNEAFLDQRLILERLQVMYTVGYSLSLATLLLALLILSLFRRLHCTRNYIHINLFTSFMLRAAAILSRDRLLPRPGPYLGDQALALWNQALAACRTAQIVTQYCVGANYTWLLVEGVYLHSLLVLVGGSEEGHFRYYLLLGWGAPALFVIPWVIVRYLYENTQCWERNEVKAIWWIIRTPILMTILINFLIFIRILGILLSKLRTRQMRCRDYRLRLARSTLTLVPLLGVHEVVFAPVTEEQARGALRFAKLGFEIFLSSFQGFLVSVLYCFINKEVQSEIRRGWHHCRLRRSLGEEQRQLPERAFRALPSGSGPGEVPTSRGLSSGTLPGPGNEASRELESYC

[2] = tested on: hMADS cells; test: mRNA expression by RT-qPCR in hMADS; format: cell-based, human; settings: in the presence of 10 nM insulin, 24 h
[3] = tested on: white hMADS cells; test: Lipolysis assay; format: cell-based, human; settings: for FFA release after pretreatment with adenylyl cyclase inhibitor SQ22536: white hMADS
[4] = healthy individuals, degradation by dipeptidyl peptidase 4; cited from earlier work
[5] = target: human insulin receptor/ CD220 (28-944) protein (Homo sapiens, UniProt P06213); test: Surface plasmon resonance, immobilised biotinylated peptide, INSR injected; format: binding; settings: biotinylated peptide on Sensor Chip SA
human insulin receptor/ CD220 (28-944) protein, sequence (P06213 28-944 isoform P06213-2): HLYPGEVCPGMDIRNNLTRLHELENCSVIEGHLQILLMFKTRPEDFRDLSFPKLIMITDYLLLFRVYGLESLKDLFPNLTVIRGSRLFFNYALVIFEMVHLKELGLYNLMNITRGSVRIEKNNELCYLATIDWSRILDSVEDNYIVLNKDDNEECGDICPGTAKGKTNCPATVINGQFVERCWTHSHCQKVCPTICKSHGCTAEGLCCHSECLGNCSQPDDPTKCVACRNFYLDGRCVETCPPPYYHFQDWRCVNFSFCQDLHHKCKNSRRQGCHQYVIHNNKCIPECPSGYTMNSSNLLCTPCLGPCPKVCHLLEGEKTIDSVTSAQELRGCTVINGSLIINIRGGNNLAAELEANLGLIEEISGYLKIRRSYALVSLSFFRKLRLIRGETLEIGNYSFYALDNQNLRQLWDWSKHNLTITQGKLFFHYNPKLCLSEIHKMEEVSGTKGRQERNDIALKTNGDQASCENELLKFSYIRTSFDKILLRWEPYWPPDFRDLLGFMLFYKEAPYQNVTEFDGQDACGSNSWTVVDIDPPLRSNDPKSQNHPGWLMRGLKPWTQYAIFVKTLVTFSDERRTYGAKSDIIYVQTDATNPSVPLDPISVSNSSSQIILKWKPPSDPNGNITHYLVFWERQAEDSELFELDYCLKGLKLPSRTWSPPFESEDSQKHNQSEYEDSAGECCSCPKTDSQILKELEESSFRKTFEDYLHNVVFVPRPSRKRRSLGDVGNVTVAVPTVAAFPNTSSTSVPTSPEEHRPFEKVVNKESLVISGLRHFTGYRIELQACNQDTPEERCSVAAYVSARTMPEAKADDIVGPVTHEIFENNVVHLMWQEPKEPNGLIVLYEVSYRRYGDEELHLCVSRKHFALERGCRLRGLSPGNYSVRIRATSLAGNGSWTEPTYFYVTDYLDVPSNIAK

Molecule: COc1cc([C@@H]2c3cc4c(cc3[C@H](O)[C@H]3COC(=O)[C@@H]23)OCO4)cc(OC)c1OC [PPP, Picropodophyllin]
expression of FASN [2]: significantly lower

Molecule: CC(C)NCC(O)c1ccc(O)c(O)c1 (centres unmarked) [isoprenaline]
FFA release after pretreatment with adenylyl cyclase inhibitor SQ22536 [3]: inhibited

Molecule: brain natriuretic peptide [BNP]
FFA release after pretreatment with adenylyl cyclase inhibitor SQ22536 [3]: remains unaffected

Second part, led by results:

effect on lipolysis induced by 1 µM isoprenaline [1]: remains unchanged
Molecule: CCCCCCCCCCCCCCCC(=O)N[C@@H](CCC(=O)NCCCC[C@H](NC(=O)[C@H](Cc1ccc(O)cc1)NC(=O)[C@H](CC(=O)O)NC(=O)[C@H](CO)NC(=O)[C@@H](NC(=O)[C@H](Cc1ccccc1)NC(=O)[C@@H](NC(C)=O)[C@@H](C)O)[C@@H](C)CC)C(=O)N[C@H](C(=O)N[C@@H](C)C(=O)N[C@@H](CC(C)C)C(=O)N[C@@H](CC(=O)O)C(=O)N[C@@H](CCCCN)C(=O)N[C@H](C(=O)N[C@@H](CCCNC(=N)N)C(=O)N[C@@H](CCC(N)=O)C(=O)N[C@@H](CCC(N)=O)C(=O)N[C@@H](CCC(=O)O)C(=O)N[C@@H](Cc1ccccc1)C(=O)N[C@H](C(=O)N[C@@H](CC(N)=O)C(=O)N[C@@H](Cc1c[nH]c2ccccc12)C(=O)N[C@@H](CC(C)C)C(=O)N[C@@H](CC(C)C)C(=O)N[C@@H](C)C(=O)N[C@@H](CCC(N)=O)C(=O)N[C@@H](CCCCN)C(=O)NCC(N)=O)C(C)C)[C@@H](C)CC)[C@@H](C)CC)C(=O)O [GIPR antagonist]

EC50 ([3]; read-out: EC50, FFA release read-out, hMADS cells): 1.1 nM
Molecule: CC[C@H](C)[C@H](NC(=O)[C@H](CO)NC(=O)[C@H](Cc1ccc(O)cc1)NC(=O)[C@H](CC(=O)O)NC(=O)[C@H](CO)NC(=O)[C@@H](NC(=O)[C@H](Cc1ccccc1)NC(=O)[C@@H](NC(=O)CNC(=O)[C@H](CCC(=O)O)NC(=O)[C@H](C)NC(=O)[C@@H](N)Cc1ccc(O)cc1)[C@@H](C)O)[C@@H](C)CC)C(=O)N[C@@H](C)C(=O)N[C@@H](CCSC)C(=O)N[C@@H](CC(=O)O)C(=O)N[C@@H](CCCCN)C(=O)N[C@H](C(=O)N[C@@H](Cc1c[nH]cn1)C(=O)N[C@@H](CCC(N)=O)C(=O)N[C@@H](CCC(N)=O)C(=O)N[C@@H](CC(=O)O)C(=O)N[C@@H](Cc1ccccc1)C(=O)N[C@H](C(=O)N[C@@H](CC(N)=O)C(=O)N[C@@H](Cc1c[nH]c2ccccc12)C(=O)N[C@@H](CC(C)C)C(=O)N[C@@H](CC(C)C)C(=O)N[C@@H](C)C(=O)N[C@@H](CCC(N)=O)C(=O)N[C@@H](CCCCN)C(=O)NCC(=O)N[C@@H](CCCCN)C(=O)N[C@@H](CCCCN)C(=O)N[C@@H](CC(N)=O)C(=O)N[C@@H](CC(=O)O)C(=O)N[C@@H](Cc1c[nH]c2ccccc12)C(=O)N[C@@H](CCCCN)C(=O)N[C@@H](Cc1c[nH]cn1)C(=O)N[C@@H](CC(N)=O)C(=O)N[C@H](C(=O)N[C@H](C(=O)N[C@@H](CCC(N)=O)C(=O)O)[C@@H](C)O)[C@@H](C)CC)C(C)C)[C@@H](C)CC [hGIP]
FFA release in hMADS treated with GIPR siRNA vs siNC ([3]; GIPR knockdown approximately 40%): significantly reduced | half-life [4]: approximately 7 minutes

binding of insulin receptor to immobilised peptide [5]: does not exhibit binding
Molecule: Ac-PKMVPQFNTELKIFPEVNIK-NH2 [SP34]

Source: article doi:10.1101/2025.06.17.660082v1 (bioRxiv, 2025)
